# From patent publication US10253319B2, “miRNA modulators of thermogenesis” (AptamiR Therapeutics, Inc., priority 2012, dated 2019)
# Tested on: UCP3
# Assay: UCP3 mRNA expression change in pre-adipocytes, RNA-Seq (Table 14)
# Assay type: cell-based, human
# Conditions: 12 days, 100 nM rosiglitazone or 25 nM miRNA analog
# Experimental: In order to assess the effect of miRNA analogs on human pre-adipocytes differentiation into mature adipocytes, human subcutaneous pre-adipocytes (SuperLot 0048 from 8 female donors, ZenBio, NC) were plated on Day 0 into 96-well plates and allowed to attach overnight in preadipocyte medium (DMEM/Ham's F-12 (1:1, v/v), HEPES buffer, Fetal bovine serum and Antibiotics). The next day (Day 1), the medium was removed and replaced with differentiation medium (DMEM/Ham's F-12 (1:1, v/v), 100 μM Ascorbic Acid, 0.85 μM insulin, 20 nM sodium selenite, 0.2 nM, triiodothryonine, 1 μM dexamethasone, 100 μM isobutyl-methylxanthine, 100 nM Rosiglitazone and Antibiotics. The cells were allowed to incubate for 2 days at 37°, 5% CO2. After 2 days (Day 3), the medium was removed and replaced with fresh maintenance medium (DMEM/Ham's F-12 (1:1, v/v), 100 μM Ascorbic Acid, 0.85 μM insulin, 20 nM sodium selenite, 0.2 nM triiodothryonine, and Antibiotics). On Day 3, the cells were transfected with miRNA analogs (Dharmacon specific miRIDIAN Mimics and Hairpin Inhibitors) using the transfecting agent Dharmafect1. All treatments were in triplicate. […]
# Changes in mRNA expression of UCP1, 2 and 3 were also measured in the presence of rosiglitazone or miRNA analogs, as shown below in Table 14.
compound,measurement,value
CN(CCOc1ccc(CC2SC(=O)NC2=O)cc1)c1ccccn1 (stereo not shown) [rosiglitazone],mRNA Expression changes (log ratios) UCP3,0.26 log ratios
